The results in this text go back to ChEMBL document CHEMBL5257060, “Trust Your Gut: Strategies and Tactics for Intestinally Restricted Drugs” (ACS Med Chem Lett, 2023).

The target in data set [1] is T1, Sodium/hydrogen exchanger 3 (Homo sapiens, UniProt P48764).
T1 sequence (P48764 whole entry): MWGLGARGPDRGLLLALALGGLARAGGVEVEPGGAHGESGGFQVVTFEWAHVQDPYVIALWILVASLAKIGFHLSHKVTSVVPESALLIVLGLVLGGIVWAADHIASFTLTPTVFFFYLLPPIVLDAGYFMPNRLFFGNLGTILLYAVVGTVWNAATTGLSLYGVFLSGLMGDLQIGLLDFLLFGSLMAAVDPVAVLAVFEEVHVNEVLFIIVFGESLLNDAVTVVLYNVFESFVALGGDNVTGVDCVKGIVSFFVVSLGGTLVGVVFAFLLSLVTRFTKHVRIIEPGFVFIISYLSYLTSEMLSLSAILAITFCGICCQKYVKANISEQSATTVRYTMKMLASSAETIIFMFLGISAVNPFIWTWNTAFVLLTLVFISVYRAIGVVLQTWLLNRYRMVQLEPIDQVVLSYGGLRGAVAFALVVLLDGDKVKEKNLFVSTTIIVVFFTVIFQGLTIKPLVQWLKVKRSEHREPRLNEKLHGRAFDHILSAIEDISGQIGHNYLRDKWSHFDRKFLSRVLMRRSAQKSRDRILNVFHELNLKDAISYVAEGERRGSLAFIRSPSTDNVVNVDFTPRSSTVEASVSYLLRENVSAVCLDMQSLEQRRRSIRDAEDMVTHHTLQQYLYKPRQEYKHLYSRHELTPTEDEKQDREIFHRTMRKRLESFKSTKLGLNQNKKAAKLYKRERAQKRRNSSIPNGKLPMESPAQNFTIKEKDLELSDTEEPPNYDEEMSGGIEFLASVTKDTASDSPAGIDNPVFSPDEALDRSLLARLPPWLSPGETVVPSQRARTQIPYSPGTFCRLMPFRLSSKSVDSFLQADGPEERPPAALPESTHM
Description: Inhibition of human NHE3.

Data set [2] is described as follows: Drug recovery in feces of rats at 30 mg/kg, po. Type of data set: ADME, organism-based. The settings on record: rat, faeces, read-out: Drug recovery.
The nature of data set [3]: Cmax in rat at 30 mg/kg, po. In kind it is ADME, organism-based. The arrangement: dose 30 mg/kg, route po. To be noted: in vivo.
In data set [4] the target is T2, G-protein coupled bile acid receptor 1 (Mus musculus, UniProt Q80SS6).
T2 sequence (Q80SS6 whole entry): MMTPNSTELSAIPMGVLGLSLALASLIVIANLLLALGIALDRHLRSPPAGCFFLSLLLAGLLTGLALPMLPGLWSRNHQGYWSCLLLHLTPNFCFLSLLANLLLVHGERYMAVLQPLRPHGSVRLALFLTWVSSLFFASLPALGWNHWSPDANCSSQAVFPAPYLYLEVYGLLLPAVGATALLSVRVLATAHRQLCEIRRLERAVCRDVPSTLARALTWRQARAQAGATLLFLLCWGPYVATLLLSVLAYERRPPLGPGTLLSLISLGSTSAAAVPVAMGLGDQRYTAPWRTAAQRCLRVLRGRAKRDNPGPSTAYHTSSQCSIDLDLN
Nature of the data set: Inhibition of mouse TGR5.

Data set [5] is described as follows: Apparent permeability across apical to basolateral side in human Caco-2 cells. Type of data set: ADME, cell-based. In general terms: Passage across Caco-2 layers is used to estimate intestinal permeability.
Data set [6] is described as follows: Drug recovery in feces of mouse at 5 mg/kg, po. Type of data set: ADME, organism-based. The settings on record: faeces, read-out: Drug recovery.
The nature of data set [7]: AUC in mouse at 5 mg/kg, po. Type of data set: ADME, organism-based. The arrangement: dose 5 mg/kg, route po. To be noted: in vivo.
A short description of data set [8]: Drug concentration in mouse intestine at 30 mg/kg, po measured for 2 hr. In kind it is ADME, organism-based. To be noted: read-out: Ct.
Data set [9] can be described thus: Drug concentration in mouse plasma at 30 mg/kg, po measured for 2 hr. Type of data set: ADME, organism-based.
The nature of data set [10]: Apparent permeability across apical to basolateral side in human Caco-2 cells by PAMPA assay. In kind it is ADME, cell-based.
Another data set has as its target Dipeptidyl peptidase 4 (Mus musculus, UniProt P28843). Nature of the data set: Inhibition of mouse DPP4.
The nature of data set [11]: Cmax in ICR mouse plasma at 150 mg/kg, po measured at 1 hr post dose. Type of data set: ADME, organism-based. The arrangement: time 1 hrs, dose 150 mg/kg, route po.
Data set [12] in a line: Cmax in mouse colon at 10 mg/kg, po. In kind it is ADME, organism-based. The arrangement: dose 10 mg/kg, route po.
Data set [13] in a line: Apparent permeability in human Caco-2 cells. Type of data set: ADME, cell-based.
Data set [14] can be described thus: Efflux ratio of apparent permeability in human Caco-2 cells. Type of data set: ADME, cell-based.
Data set [15] can be described thus: Cmax in mouse plasma at 10 mg/kg, po. Type of data set: ADME, organism-based. The arrangement: dose 10 mg/kg, route po.
The nature of data set [16]: Cmax in rat plasma at 10 mg/kg, po. Type of data set: ADME, organism-based. The arrangement: dose 10 mg/kg, route po.
Data set [17] is described as follows: Cmax in mouse colon content at 10 mg/kg, po. Type of data set: ADME, organism-based. The arrangement: dose 10 mg/kg, route po.
Data set [18] can be described thus: Drug recovery in feces of rats at 20 mg, po. In kind it is ADME. The settings on record: rat, faeces, read-out: Drug recovery.

Where only a bound is given, the exact number is not on record here.

Chain of Dipeptidyl peptidase 4 (P28843 whole entry): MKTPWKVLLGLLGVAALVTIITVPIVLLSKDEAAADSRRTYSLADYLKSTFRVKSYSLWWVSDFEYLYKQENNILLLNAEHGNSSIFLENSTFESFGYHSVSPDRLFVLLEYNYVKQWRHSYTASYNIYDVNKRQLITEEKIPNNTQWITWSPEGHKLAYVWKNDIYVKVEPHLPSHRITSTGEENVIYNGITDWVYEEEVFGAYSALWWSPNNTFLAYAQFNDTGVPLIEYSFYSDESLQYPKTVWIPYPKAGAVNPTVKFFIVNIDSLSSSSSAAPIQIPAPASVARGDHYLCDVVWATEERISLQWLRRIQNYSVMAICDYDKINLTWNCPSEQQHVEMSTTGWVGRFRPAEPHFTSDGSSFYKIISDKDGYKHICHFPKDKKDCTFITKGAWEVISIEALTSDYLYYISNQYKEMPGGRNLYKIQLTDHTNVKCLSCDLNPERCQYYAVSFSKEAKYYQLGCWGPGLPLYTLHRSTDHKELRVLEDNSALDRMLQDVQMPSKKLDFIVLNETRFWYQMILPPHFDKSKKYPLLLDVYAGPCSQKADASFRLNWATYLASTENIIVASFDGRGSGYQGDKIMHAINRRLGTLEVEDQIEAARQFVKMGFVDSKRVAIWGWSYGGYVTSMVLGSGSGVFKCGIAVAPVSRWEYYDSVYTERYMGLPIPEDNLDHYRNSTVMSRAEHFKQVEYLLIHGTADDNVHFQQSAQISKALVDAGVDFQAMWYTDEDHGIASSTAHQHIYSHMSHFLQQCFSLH

For the molecule `CN1Cc2c(Cl)cc(Cl)cc2[C@@H](c2cccc(S(=O)(=O)NCCOCCOCCNC(=O)NCCCCNC(=O)NCCOCCOCCNS(=O)(=O)c3cccc([C@@H]4CN(C)Cc5c(Cl)cc(Cl)cc54)c3)c2)C1`, it took 0.5 nM to reach half-maximal inhibition in data set [1] (IC50). Moreover, in [2], the dose excreted was found to be 92%. The Cmax (commonly the highest concentration seen after dosing) in [3] is less than 0.5 ng/mL.

`CO[C@@H]1C[C@@H]2C[C@H](O)CC[C@]2(C)[C@H]2CC[C@]3(C)[C@@H]([C@H](C)CCC(=O)N(C)C[C@H](O)[C@@H](O)[C@H](O)[C@H](O)CO)CC[C@H]3[C@H]12`: the response in [4] was half-maximal at 62.3 nM (EC50). That is a double-digit nanomolar value.

Turning to `CO[C@@H]1CC[C@@]2(C)[C@H](CC(OS(=O)(=O)[O-])[C@@H]3[C@@H]2CC[C@]2(C)[C@@H]([C@H](C)CCc4nnn[nH]4)CC[C@@H]32)C1.[Na+]` (some centres not stated), in data set [5], the Papp A→B (in general, the apparent permeability from the apical to the basolateral side of a cell layer) was 0.4 ×10⁻⁶ cm/s. In addition, the dose excreted in [6] was found to be 89%. Moreover, the AUC – broadly, concentration integrated over time – in [7] is 4840 ng·h/mL.

Regarding `Cc1cc(C)c(S(=O)(=O)N(CCc2cccc(Br)c2)Cc2ccc(-c3cccc(S(C)(=O)=O)c3)cc2)c(C)c1`, the results for the concentration at 2 h in data set [8] and in data set [9] were 30 µM and 6 nM, respectively.

Regarding `CC#CCn1c(N2CCC[C@H](NC(=O)CCOCCOCCOCCOCCOCCOCCN(C)C(=O)CCc3cc(Cl)c(Oc4ccncc4C(=O)N4CCN(C5CC5)c5ccccc54)cc3Cl)C2)nc2c1c(=O)n(Cc1nc(C)c3ccccc3n1)c(=O)n2C`, in data set [4], the EC50 (usually the midpoint of the concentration-response curve) stood at 17 nM. Moreover, in data set [10], the apical-to-basolateral permeability (Papp A→B) was 0.03 ×10⁻⁶ cm/s. The IC50 (in general, the concentration at which inhibition is half-maximal) against Dipeptidyl peptidase 4 was 70 µM. Also, in data set [11], the Cmax stood at 101 ng/mL.

For `CN(CC[N+](C)(C)C)C(=O)CCc1cc(Cl)c(Oc2ccsc2C(=O)N2CCN(C3CC3)c3ccccc32)cc1Cl.O=C([O-])C(F)(F)F`, the Papp A→B in data set [5] was 0.06 ×10⁻⁶ cm/s.

In the case of `Cc1cc(Nc2cc3ncccc3c(NC3C[C@H]4CC[C@@H](C3)N4CCC#N)n2)n[nH]1` (some centres not stated), the Cmax in [12] amounted to 9.17 µM; in [15] it was 3 nM. Besides, the Papp (in general, the rate of passage across a membrane or cell layer, normalised by area and donor concentration) in data set [13] turned out to be 1.17 ×10⁻⁶ cm/s. Also, the efflux ratio (usually a quotient of directional permeabilities that is used to spot active efflux) in data set [14] was determined as 32.5.

For the molecule `Cc1cccc(Oc2cc(Oc3cccc(C)n3)cc(Oc3cccc(C)n3)c2)n1` [AMELENODOR], the Cmax was determined as 57 ng/mL in data set [16], 150000 ng/g in data set [12] and 1e+07 ng/g in data set [17].

As to `CCCCC1(CCCC)CS(=O)(=O)c2ccc(N(C)C)cc2[C@@H](c2ccc(OCc3ccc(C[N+]45CCN(CC4)CC5)cc3)cc2)[C@H]1O` [MARALIXIBAT], the dose excreted in [18] stood at 94%.
